Patent publication US20160280743A1, “BACTERIAL MUTANTS AND METHODS OF USE” (priority 2015, published 2016)
Converted amounts (≈) assume the structure as drawn.

How the values were obtained:
[1] = tested on: E. coli WT, WT-Pore, ΔTolC, ΔTolC-Pore; assay type: cell-based, Escherichia coli; settings: E. coli
[2] = tested on: P. aeruginosa PAO1, PAO1-Pore, Δ3, Δ3-Pore; test: Fold MIC change between P. aeruginosa strains (OM barrier, efflux); assay type: cell-based, Pseudomonas aeruginosa; settings: P. aeruginosa
E. coli GD102 (ΔTolC) = settings: E. coli ΔTolC without pore; 0.1% arabinose; LB, 37° C., 16 h
Protocol: (§1) Susceptibilities of E. coli and P. aeruginosa cells to different classes of antibiotics were determined by two-fold broth dilution method [1] with following modifications. Cells were grown in Luria-Bertani (LB) broth (tryptone 10 g/L, yeast extract 5 g/L and NaCl 5 g/L) with appropriate selection markers as needed, at 37° C. with shaking at 200 rpm. When needed, at OD600˜0.3, either L-arabinose (final concentration 0.1%) or IPTG (final concentration 0.1 mM) were added to induce the expression of the pore and cells were further incubated until OD600 reached 1.0. MICs of various antimicrobial agents were measured in 96-well micro-titer plates. For this purpose, exponentially growing cells were inoculated at a density of 10^5 cells/ml into wells containing LB medium in the presence of two-fold increasing concentrations of drugs under investigation at constant inducer concentration of 0.1% arabinose for E. coli or 0.1 mM IPTG for P. aeruginosa strains. Cell growth was determined visually or using Spark 10M microplate reader (Tecan) after incubation of the micro-titer plates at 37° C. for 16 h.
(§2) For this purpose, induced cells were dispensed into 96-well microplates with LB medium containing two-fold dilutions of an antibiotic of interest and a respective concentration of an inducer.

[3] = tested on: E. coli ΔTolC-Pore (GKCW103, FhuAΔC/Δ4L pore); settings: 0.1% arabinose, LB, 37° C., 16 h
Protocol: as §1, §2

[4] = tested on: P. aeruginosa PAO1Δ3 (Δ3); settings: P. aeruginosa Δ3 without pore; 0.1 mM IPTG; LB, 37° C., 16 h
Protocol: as §1, §2

E. coli BW 25113 (WT) = test: microbe, parasite or virus in culture; settings: Escherichia coli, 16 h, read-out: MIC BW 25113 (WT) —
Protocol: as §1, §2

[5] = tested on: E. coli WT-Pore (GKCW101, FhuAΔC/Δ4L pore); test: microbe, parasite or virus in culture; settings: Escherichia coli, 16 h, read-out: MIC BW 25113 (WT) Pore
Protocol: as §1, §2

P. aeruginosa PAO1 = test: microbe, parasite or virus in culture; settings: Pseudomonas aeruginosa, PAO1, 16 h, read-out: MIC PAO1 —
Protocol: as §1, §2

[6] = tested on: P. aeruginosa Δ3-Pore (GKCW116, FhuAΔC/Δ4L pore); test: MIC, two-fold broth dilution, P. aeruginosa Δ3-Pore; settings: P. aeruginosa Δ3-Pore; 0.1 mM IPTG; LB, 37° C., 16 h
Protocol: as §1, §2

Compound	Fold MIC change, Efflux, WT-Pore/ΔTolC-Pore [1]	Fold MIC change, Efflux, WT/ΔTolC [1]	Fold MIC change, OM barrier, WT/WT-Pore [1]	Fold MIC change, OM barrier, ΔTolC/ΔTolC-Pore [1]	Fold MIC change, Efflux, PAO1-Pore/Δ3-Pore [2]	Fold MIC change, Efflux, PAO1/Δ3 [2]	Fold MIC change, OM barrier, PAO1/PAO1-Pore [2]	Fold MIC change, OM barrier, Δ3/Δ3-Pore [2]	MIC GD102 (ΔTolC) — (E. coli GD102 (ΔTolC))	MIC GD102 (ΔTolC) Pore [3]	MIC Δ3 — [4]	MIC (E. coli BW 25113 (WT))	MIC [5]	MIC (P. aeruginosa PAO1)	MIC Δ3 Pore [6]
NCC[C@H](O)C(=O)N[C@@H]1C[C@H](N)[C@@H](O[C@H]2O[C@H](CN)[C@@H](O)[C@H](O)[C@H]2O)[C@H](O)[C@H]1O[C@H]1O[C@H](CO)[C@@H](O)[C@H](N)[C@H]1O [Amikacin]	1 fold	1 fold	1 fold	1 fold	2 fold	1 fold	0.5 fold	1 fold	2 µg/mL (≈ 3.42 µM)	2 µg/mL (≈ 3.42 µM)	1 µg/mL (≈ 1.71 µM)	2 µg/mL (≈ 3.42 µM)	2 µg/mL (≈ 3.42 µM)	1 µg/mL (≈ 1.71 µM)	1 µg/mL (≈ 1.71 µM)
CC1(C)S[C@@H]2[C@H](NC(=O)[C@H](N)c3ccccc3)C(=O)N2[C@H]1C(=O)O [Ampicillin]	–	–	–	–	–	–	–	–	8 µg/mL (≈ 22.9 µM)	0.5 µg/mL (≈ 1.43 µM)	–	16 µg/mL (≈ 45.8 µM)	2 µg/mL (≈ 5.72 µM)	–	–
CC1(C)S[C@@H]2[C@H](NC(=O)C(C(=O)O)c3ccccc3)C(=O)N2[C@H]1C(=O)O (some centres unmarked) [Carbenicillin]	1 fold	4 fold	8 fold	2 fold	32 fold	64 fold	16 fold	8 fold	1 µg/mL (≈ 2.64 µM)	0.5 µg/mL (≈ 1.32 µM)	0.5 µg/mL (≈ 1.32 µM)	4 µg/mL (≈ 10.6 µM)	0.5 µg/mL (≈ 1.32 µM)	32 µg/mL (≈ 84.6 µM)	0.063 µg/mL (≈ 0.166 µM)
O=C(N[C@H](CO)[C@H](O)c1ccc([N+](=O)[O-])cc1)C(Cl)Cl [Chloramphenicol]	4 fold	4 fold	1 fold	1 fold	16 fold	8 fold	4 fold	8 fold	0.5 µg/mL (≈ 1.55 µM)	0.5 µg/mL (≈ 1.55 µM)	1 µg/mL (≈ 3.09 µM)	2 µg/mL (≈ 6.19 µM)	2 µg/mL (≈ 6.19 µM)	8 µg/mL (≈ 24.8 µM)	0.125 µg/mL (≈ 0.387 µM)
Cc1onc(-c2ccccc2Cl)c1C(=O)N[C@@H]1C(=O)N2[C@@H]1SC(C)(C)[C@@H]2C(=O)O [Cloxacillin]	128 fold	512 fold	4 fold	1 fold	64 fold	≧8 fold	≧4 fold	16 fold	1 µg/mL (≈ 2.29 µM)	1 µg/mL (≈ 2.29 µM)	128 µg/mL (≈ 294 µM)	512 µg/mL (≈ 1170 µM)	128 µg/mL (≈ 294 µM)	> 2050 µg/mL	8 µg/mL (≈ 18.4 µM)
C[C@H]1COc2c(N3CCN(C)CC3)c(F)cc3c(=O)c(C(=O)O)cn1c23 [Levofloxacin]	–	–	–	–	–	–	–	–	0.004 µg/mL (≈ 0.0111 µM)	0.004 µg/mL (≈ 0.0111 µM)	–	–	0.016 µg/mL (≈ 0.0443 µM)	0.125 µg/mL (≈ 0.346 µM)	–
CCC[C@@H]1C[C@@H](C(=O)N[C@@H]([C@H]2O[C@H](SC)[C@H](O)[C@@H](O)[C@H]2O)[C@@H](C)O)N(C)C1 [Lincomycin]	8 fold	8 fold	1 fold	1 fold	–	–	–	–	64 µg/mL (≈ 157 µM)	64 µg/mL (≈ 157 µM)	–	512 µg/mL (≈ 1260 µM)	512 µg/mL (≈ 1260 µM)	–	–
CCn1cc(C(=O)O)c(=O)c2ccc(C)nc21 [Nalidixic acid]	8 fold	8 fold	1 fold	1 fold	16 fold	8 fold	2 fold	4 fold	1 µg/mL (≈ 4.31 µM)	1 µg/mL (≈ 4.31 µM)	8 µg/mL (≈ 34.4 µM)	8 µg/mL (≈ 34.4 µM)	8 µg/mL (≈ 34.4 µM)	64 µg/mL (≈ 276 µM)	2 µg/mL (≈ 8.61 µM)
CO[C@@H]1[C@@H](OC(N)=O)[C@@H](O)[C@H](Oc2ccc3c(O)c(NC(=O)c4ccc(O)c(CC=C(C)C)c4)c(=O)oc3c2C)OC1(C)C [Novobiocin]	256 fold	256 fold	4 fold	4 fold	64 fold	16 fold	8 fold	32 fold	0.5 µg/mL (≈ 0.816 µM)	0.125 µg/mL (≈ 0.204 µM)	32 µg/mL (≈ 52.2 µM)	128 µg/mL (≈ 209 µM)	32 µg/mL (≈ 52.2 µM)	512 µg/mL (≈ 836 µM)	1 µg/mL (≈ 1.63 µM)
Nc1ccc2cc3ccc(N)cc3nc2c1 [Proflavine]	4 fold	4 fold	1 fold	1 fold	–	–	–	–	8 µg/mL (≈ 38.2 µM)	8 µg/mL (≈ 38.2 µM)	–	32 µg/mL (≈ 153 µM)	32 µg/mL (≈ 153 µM)	–	–
[H]/N=C(/N)N[C@H]1[C@H](O)[C@@H](O)[C@H](O[C@@H]2O[C@@H](C)[C@](O)(C=O)[C@H]2O[C@@H]2O[C@@H](CO)[C@H](O)[C@@H](O)[C@@H]2NC)[C@@H](N/C(N)=N\[H])[C@@H]1O [Streptomycin]	1 fold	0.5 fold	1 fold	2 fold	–	–	–	–	4 µg/mL (≈ 6.88 µM)	2 µg/mL (≈ 3.44 µM)	–	2 µg/mL (≈ 3.44 µM)	2 µg/mL (≈ 3.44 µM)	–	–
CN(C)[C@@H]1C(O)=C(C(N)=O)C(=O)[C@@]2(O)C(O)=C3C(=O)c4c(O)cccc4[C@@](C)(O)[C@H]3C[C@@H]12 [Tetracycline]	2 fold	4 fold	2 fold	1 fold	16 fold	2 fold	8 fold	64 fold	0.125 µg/mL (≈ 0.281 µM)	0.125 µg/mL (≈ 0.281 µM)	2 µg/mL (≈ 4.5 µM)	0.5 µg/mL (≈ 1.13 µM)	0.25 µg/mL (≈ 0.563 µM)	4 µg/mL (≈ 9 µM)	0.031 µg/mL (≈ 0.0698 µM)
